Source: the NIST ThermoML archive (doi:10.1021/je700448v)
± gives the expanded uncertainty stated by the source.

Key:
[1] = Crystal; DTA
[2] = Molar enthalpy of transition or fusion; conditions: Crystal; DSC

With O=Cc1ccc(Br)cc1 [4-bromobenzaldehyde] the Normal melting temperature [1] was 61.1 ± 0.4 °C and the “Molar enthalpy of transition or fusion” value [2] was 5.41 ± 0.124 kcal/mol.
